Experimental data published in patent publication US11970497B2, “Tricyclic AKR1C3 dependent KARS inhibitors” (Novartis AG, priority 2019, dated 2024).

Key:
[1] = system: H460 (NRF2 pathway mutant cell line with high AKR1C3 expression); test: In vitro cell proliferation assay (CellTiter-Glo), H460; format: cell-based; settings: Homo sapiens, NCI-H460, 72 h; H460 cells, 3 days, CellTiter-Glo, top concentration 10 μM; read-out: H460 Qualified absolute AC50
How it was run: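 Luminescent CellTiter-Glo readout after 3-day compound exposure at 37 °C; 8-point 1:5 series, top 10 μM final. Seeding: 800 cells/well for H460, 2000 cells/well for Hara, RPMI-1640 plus 10% FBS. AC50 and percentage activity derived after normalizing to DMSO (1%) and MG132 (30 μM) controls.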

[2] = system: Hara (NRF2 pathway wild type cell line with low AKR1C3 expression); test: In vitro cell proliferation assay (CellTiter-Glo), Hara; format: cell-based; settings: 72 h; Hara cells, 3 days, CellTiter-Glo, top concentration 10 μM; read-out: HARA Qualified absolute AC50
From the text: Cellular Proliferation Assay to Assess Compounds Activity in H460 (NRF2 Pathway Mutant Cell Line with High AKR1C3 Expression) and Hara (NRF2 Pathway Wild Type Cell Line with Low AKR1C3 Expression).
The cell lines A549 and H460 are NRF2 pathway mutant and specifically contain genetic alterations in KEAP1 (A549: G333C, H460: D236H) (Singh A. et al., 2006 PLoS Medicine 3(10) e420). In these cell lines the NRF2 pathway is constitutively active and these cells express high levels of NRF2 protein and NRF2 pathway target gene AKR1C3. […] They have low AKR1C3 expression.
In Vitro Cell Proliferation Assay
Day 1, for H460 800 cells/well or 40 μL of 2×10^4 cells/mL and for Hara 2000 cells/well or 40 μL of 5×10^4 cells/mL medium (RPMI-1640 supplemented with 10% fetal bovine serum and 1% penicillin/streptomycin) were seeded into 384-well tissue culture plates. Day 2, compounds were serially diluted 1:5 to generate 8 point dose response curves and added to cells for a final top concentration of 10 μM. DMSO (1%) control and MG132 (30 μM) controls are added in columns 23 and 24 respectively on each plate for positive and negative control. After incubation for 3 days at 37° C./5% CO2, 30 μl of CellTiter-Glo reagent (Promega) was added and the plates were incubated for 10 min on plate shaker. The amount of luminescence was determined using a Perkin Elmer Envision plate reader. CellTiter-Glo luminescence values of cells treated with DMSO and MG132 controls were used to normalize the data and calculate percentage activity and AC50s of compounds using the Helios Software suite.

| Structure (SMILES) | AC50 [1] | AC50 [2] |
| --- | --- | --- |
| C/C=C/CN1c2ccc(F)cc2C(=O)CC12CCN(C(=O)NCc1ccc(F)cc1)CC2 [Example 85, (E)-1′-(but-2-en-1-yl)-6′-fluoro-N-(4-fluorobenzyl)-4′-oxo-3′,4′-dihydro-1′H-spiro[piperidine-4,2′-quinoline]-1-carboxamide] | 0.371 µM | 9.49 µM |
| CN1c2ccc(F)cc2[C@@H](O)CC12CCN(C(=O)NCc1ccc(F)cc1)CC2 (single isomer, unassigned) [Example 151b] | 3.4 µM | 6.07 µM |
| O=C1CC2(CCN(C(=O)NCc3cnoc3)CC2)Nc2ccc(F)cc21 [Example 107, 6′-fluoro-N-(isoxazol-4-ylmethyl)-4′-oxo-3′,4′-dihydro-1′H-spiro[piperidine-4,2′-quinoline]-1-carboxamide] | 0.612 µM | > 10 µM |
| CCN1c2ccc(F)cc2C(=O)CC12CCN(C(=O)NCc1ccc(F)c(C(N)=O)c1)CC2 [Example 13, N-(3-carbamoyl-4-fluorobenzyl)-1′-ethyl-6′-fluoro-4′-oxo-3′,4′-dihydro-1′H-spiro[piperidine-4,2′-quinoline]-1-carboxamide] | 0.025 µM | 7.95 µM |
| O=C1CC2(CCN(C(=O)NCc3ccccc3)CC2)Nc2ccc(F)cc21 [Example 33, N-benzyl-6′-fluoro-4′-oxo-3′,4′-dihydro-1′H-spiro[piperidine-4,2′-quinoline]-1-carboxamide] | 0.075 µM | 1.19 µM |
| O=C(NCCO)c1cc(CNC(=O)N2CCC3(CC2)CC(=O)c2cc(F)ccc2N3)ccc1F [Example 48, 6′-fluoro-N-(4-fluoro-3-((2-hydroxyethyl)carbamoyl)benzyl)-4′-oxo-3′,4′-dihydro-1′H-spiro[piperidine-4,2′-quinoline]-1-carboxamide] | 0.108 µM | 7.96 µM |
| O=C1CC2(CCN(C(=O)NCc3ccc(F)c(CNCCO)c3)CC2)Nc2ccc(F)cc21 [Example 146, 6′-fluoro-N-(4-fluoro-3-(((2-hydroxyethyl)amino)methyl)benzyl)-4′-oxo-3′,4′-dihydro-1′H-spiro[piperidine-4,2′-quinoline]-1-carboxamide] | 3.65 µM | 2.79 µM |
| CCNc1cc(F)ccc1CNC(=O)N1CCC2(CC1)CC(=O)c1cc(F)ccc1N2C [Example 52, N-(2-(ethylamino)-4-fluorobenzyl)-6′-fluoro-1′-methyl-4′-oxo-3′,4′-dihydro-1′H-spiro[piperidine-4,2′-quinoline]-1-carboxamide] | 0.139 µM | > 10 µM |
| Nc1ccc(CNC(=O)N2CCC3(CC2)CC(=O)c2cc(F)ccc2N3)cc1Cl [Example 87, N-(4-amino-3-chlorobenzyl)-6′-fluoro-4′-oxo-3′,4′-dihydro-1′H-spiro[piperidine-4,2′-quinoline]-1-carboxamide] | 0.388 µM | > 10 µM |
| O=C1CC2(CCN(C(=O)NCc3cccc(-n4cncn4)c3)CC2)Nc2c(F)cc(F)cc21 [Example 144, N-(3-(1H-1,2,4-triazol-1-yl)benzyl)-6′,8′-difluoro-4′-oxo-3′,4′-dihydro-1′H-spiro[piperidine-4,2′-quinoline]-1-carboxamide] | 3.05 µM | > 10 µM |
| O=C(NCc1ccc(F)cc1O)N1CCC2(CC1)C[C@H](O)c1cc(F)ccc1N2 (single isomer, unassigned) [Example 154b] | 0.464 µM | 0.749 µM |
| CN1c2ccc(F)cc2C(=O)CC12CCN(C(=O)NCc1ccc(F)c(OCCO)c1)CC2 [Example 3, 6′-fluoro-N-(4-fluoro-3-(2-hydroxyethoxy)benzyl)-1′-methyl-4′-oxo-3′,4′-dihydro-1′H-spiro[piperidine-4,2′-quinoline]-1-carboxamide] | 0.005 µM | 1.76 µM |
| Nc1ccc(CNC(=O)N2CCC3(CC2)CC(=O)c2cc(F)ccc2N3)c(C(F)(F)F)c1 [Example 104, N-(4-amino-2-(trifluoromethyl)benzyl)-6′-fluoro-4′-oxo-3′,4′-dihydro-1′H-spiro[piperidine-4,2′-quinoline]-1-carboxamide] | 0.573 µM | > 10 µM |
| CCN1c2ccc(F)cc2C(=O)CC12CCN(C(=O)NCc1cc(NCCO)c(F)cc1F)CC2 [Example 18, N-(2,4-difluoro-5-((2-hydroxyethyl)amino)benzyl)-1′-ethyl-6′-fluoro-4′-oxo-3′,4′-dihydro-1′H-spiro[piperidine-4,2′-quinoline]-1-carboxamide] | 0.03 µM | 4.19 µM |
| CN1c2ccc(F)cc2C(=O)CC12CCN(C(=O)NCc1ccc(F)cc1F)CC2 [Example 5, N-(2,4-difluorobenzyl)-6′-fluoro-1′-methyl-4′-oxo-3′,4′-dihydro-1′H-spiro[piperidine-4,2′-quinoline]-1-carboxamide] | 0.008 µM | > 10 µM |
| COCCNc1cc(CNC(=O)N2CCC3(CC2)CC(=O)c2cc(F)ccc2N3)ccc1F [Example 99, 6′-fluoro-N-(4-fluoro-3-((2-methoxyethyl)amino)benzyl)-4′-oxo-3′,4′-dihydro-1′H-spiro[piperidine-4,2′-quinoline]-1-carboxamide] | 0.507 µM | > 10 µM |
| O=C1CC2(CCN(C(=O)NCc3ccno3)CC2)Nc2ccc(F)cc21 [Example 124, 6′-fluoro-N-(isoxazol-5-ylmethyl)-4′-oxo-3′,4′-dihydro-1′H-spiro[piperidine-4,2′-quinoline]-1-carboxamide] | 1.16 µM | > 10 µM |
| CCN1c2ccc(F)cc2C(=O)CC12CCN(C(=O)NCc1cc(N)c(F)cc1F)CC2 [Example 50, N-(5-amino-2,4-difluorobenzyl)-1′-ethyl-6′-fluoro-4′-oxo-3′,4′-dihydro-1′H-spiro[piperidine-4,2′-quinoline]-1-carboxamide] | 0.122 µM | > 10 µM |
| O=C1CC2(CCN(C(=O)NCc3ccoc3)CC2)Nc2c(F)cc(F)cc21 [Example 46, 6′,8′-difluoro-N-(furan-3-ylmethyl)-4′-oxo-3′,4′-dihydro-1′H-spiro[piperidine-4,2′-quinoline]-1-carboxamide] | 0.105 µM | 2.94 µM |
| Cc1noc(CNC(=O)N2CCC3(CC2)CC(=O)c2cc(F)ccc2N3)n1 [Example 134, 6′-fluoro-N-((3-methyl-1,2,4-oxadiazol-5-yl)methyl)-4′-oxo-3′,4′-dihydro-1′H-spiro[piperidine-4,2′-quinoline]-1-carboxamide] | 1.78 µM | 0.094 µM |
| CC(O)c1cc(CNC(=O)N2CCC3(CC2)CC(=O)c2cc(F)ccc2N3)ccc1F (stereo not drawn) [Example 135, 6′-fluoro-N-(4-fluoro-3-(1-hydroxyethyl)benzyl)-4′-oxo-3′,4′-dihydro-1′H-spiro[piperidine-4,2′-quinoline]-1-carboxamide] | 1.86 µM | > 10 µM |
| CN1c2ccc(F)cc2C(=O)CC12CCN(C(=O)NCc1ccc(N)cc1)CC2 [Example 76, N-(4-aminobenzyl)-6′-fluoro-1′-methyl-4′-oxo-3′,4′-dihydro-1′H-spiro[piperidine-4,2′-quinoline]-1-carboxamide] | 0.309 µM | > 10 µM |
| O=C1CC2(CCN(C(=O)NCc3ccc(F)c(-c4cnco4)c3)CC2)Nc2ccc(F)cc21 [Example 15, 6′-fluoro-N-(4-fluoro-3-(oxazol-5-yl)benzyl)-4′-oxo-3′,4′-dihydro-1′H-spiro[piperidine-4,2′-quinoline]-1-carboxamide] | 0.029 µM | 9.44 µM |
| C[C@@H](O)CNC(=O)c1cc(CNC(=O)N2CCC3(CC2)CC(=O)c2cc(F)ccc2N3C)ccc1F [Example 94, (R)-6′-fluoro-N-(4-fluoro-3-((2-hydroxypropyl)carbamoyl)benzyl)-1′-methyl-4′-oxo-3′,4′-dihydro-1′H-spiro[piperidine-4,2′-quinoline]-1-carboxamide] | 0.471 µM | 9.49 µM |
| Nc1cc(F)ccc1CNC(=O)N1CCC2(CC1)CC(=O)c1cc(F)ccc1N2 [Example 137, N-(2-amino-4-fluorobenzyl)-6′-fluoro-4′-oxo-3′,4′-dihydro-1′H-spiro[piperidine-4,2′-quinoline]-1-carboxamide] | 2.03 µM | > 10 µM |
| O=C1CC2(CCN(C(=O)NCc3cccc(-c4ncc[nH]4)c3)CC2)Nc2ccc(F)cc21 [Example 130, N-(3-(1H-imidazol-2-yl)benzyl)-6′-fluoro-4′-oxo-3′,4′-dihydro-1′H-spiro[piperidine-4,2′-quinoline]-1-carboxamide] | 1.53 µM | > 10 µM |
| O=C1CC2(CCN(C(=O)NCc3ccc(F)cc3OCC(F)(F)F)CC2)Nc2ccc(F)cc21 [Example 51, 6′-fluoro-N-(4-fluoro-2-(2,2,2-trifluoroethoxy)benzyl)-4′-oxo-3′,4′-dihydro-1′H-spiro[piperidine-4,2′-quinoline]-1-carboxamide] | 0.128 µM | 4.75 µM |
